From patent US20070009614A1, “Composition and method for treating hypertension” (Northern Sydney Area Health Service, priority 2002, published 2007)

Tests used:
[1] = tested on: elderly patients with systolic hypertension; assay: Group I: double-blind randomised crossover study of single doses in patients with systolic hypertension, no baseline angiotensin II inhibition; settings: for Sitting brachial blood pressure systolic: at 11.00 h after single dose at 08.00 h (ISMN 60 mg, captopril 25 mg, eprosartan 600 mg), placebo 173 ± 3; for Sitting brachial blood pressure systolic / Heart rate (sitting) / Sitting brachial blood pressure diastolic / Standing brachial blood pressure diastolic / Standing brachial blood pressure systolic / decrease in P1 (aortic first peak pressure) at nadir / decrease in P2 (augmentation pressure) at nadir: mean ± SEM; for Heart rate (sitting) / Sitting brachial blood pressure diastolic / Standing brachial blood pressure diastolic / Standing brachial blood pressure systolic: at 11.00 h after single dose at 08.00 h; for Heart rate (sitting): placebo 60 ± 4; for Sitting brachial blood pressure diastolic: placebo 82 ± 3; for Standing brachial blood pressure diastolic: placebo 83 ± 3; for Standing brachial blood pressure systolic: placebo 166 ± 4; for effect on augmentation index: post-dose observation period; for effect on aortic systolic blood pressure: ISMN and captopril P<0.0001, eprosartan P<0.001; for aortic systolic pressure lower than control at nadir of hypotensive effect: nadir ISMN 10.00 h, captopril 11.00 h, eprosartan 09.00 h
Text: The subjects were sixteen patients with long-standing hypertension, referred from their family physicians after having undergone treatment trials using a variety of conventional antihypertensive agents without reaching satisfactory control of systolic blood pressure. […] Plasma creatinine concentration was <0.15 mmol/l in every case. There was a history of myocardial infarction Or coronary bypass grafting in eight subjects, of peripheral vascular disease in four, and of diabetes mellitus (not requiring medication) in one. All patients were fully ambulant without symptomatic cardiac disease or known vascular aneurysm. Their current regimen of antihypertensive therapy had been stable for three weeks or more, and was continued unchanged through the present study. None had received nitrate therapy previously. Two different study protocols were used. One patient participated in both protocols with a 15-month break in between. Entry to either study required that systolic blood pressure should be between 150 and 200 mmHg, and that diastolic blood pressure should be equal to or less than 100 mmHg.
Group I protocol. […] Their baseline anti-hypertensive therapy, which excluded ACE inhibitors and angiotensin II receptor antagonists, consisted of one to three of the following drugs in conventional dosage:. diuretics (7 cases), beta blockers (7), prazosin (1), amlodipine (4), nifedipine controlled-release formulation (2). […] The pulse wave and pulse rate were measured at the same intervals. Between observations, the subjects engaged in sedentary recreational activities in a temperature-controlled environment.
Brachial blood pressure was recorded by sphygmomanometer, and pulse wave tonometry was performed at the radial artery with the patient seated. The aortic pulse wave form was determined and the aortic first peak pressure (P1) and augmentation pressure (P2) were quantified by computer software (SphygmoCor, AtCor Medical, Sydney), as previously reported.^13 Augmentation index (P2 expressed as % of pulse pressure) described the magnitude of wave reflection. Statistical analysis was by repeated measures analysis of variance using PRISM (GraphPad Software Inc., San Diego, Calif.) and post-hoc paired t tests. Values given are mean±SEM.

[2] = reported in literature (refs 15-17); cited from earlier work
[3] = tested on: elderly patients with systolic hypertension on chronic angiotensin II inhibitors; assay: Group II: double-blind randomised crossover study of single-dose ISMN in patients with AII inhibition at baseline; assay type: in vivo, human; settings: for decrease in sitting diastolic pressure: not significant
Experimental: None had received nitrate therapy previously. Two different study protocols were used. […] Group II protocol. […] The two study days were one to two weeks apart. Observations were made from 0800 h to 1600 h as in Group I. These subjects differed from Group I in that they were receiving treatment at study entry with ACE inhibitor or angiotensin II receptor antagonist drugs, as follows: monopril 10 mg/d (1 case), captopril 50 mg/d (1), ramipril 10 mg/day (1), ramipril 10 mg/d and candesartan 16 mg/d (1), irbesartan 300 mg/d (1), telmisartan 40 mg/d (1). Their other baseline antihypertensive drug therapy consisted of 1-2 of the following agents in conventional dosage: hydrochlorthiazide (1), beta blockers (2), amlodipine (1), diltiazem controlled-delivery formulation (2). […] Values given are mean±SEM.

SMILES	Sitting brachial blood pressure systolic ([1]; Group I) [mm Hg]	Heart rate (sitting) ([1]; Group I) [bpm]	Sitting brachial blood pressure diastolic ([1]; Group I) [mm Hg]	Standing brachial blood pressure diastolic ([1]; Group I) [mm Hg]	Standing brachial blood pressure systolic ([1]; Group I) [mm Hg]	effect on augmentation index ([1]; Group I)	effect on heart rate ([1]; Group I, single dose)	effect on aortic systolic blood pressure ([1]; Group I, single dose)	decrease in P1 (aortic first peak pressure) at nadir ([1]; Group I, single dose) [mmHg]	decrease in P2 (augmentation pressure) at nadir ([1]; Group I, single dose) [mm Hg]	aortic systolic pressure lower than control at nadir of hypotensive effect ([1]; Group I, single dose) [mm Hg]	time to reach peak plasma concentration [2] [h]	other results
CCCCc1ncc(/C=C(\Cc2cccs2)C(=O)O)n1Cc1ccc(C(=O)O)cc1 [Eprosartan, eprosartan]	158 ± 5	59 ± 4	78 ± 3	83 ± 4	152 ± 4	Neither captopril nor eprosartan altered	not changed	significantly decreased	4±2	6±3	15	1 to 2	
C[C@H](CS)C(=O)N1CCC[C@H]1C(=O)O [Captopril, captopril]	148 ± 5	59 ± 4	78 ± 2	78 ± 2	143 ± 5	Neither captopril nor eprosartan altered	not changed	significantly decreased	9±2	9±3	23	1	
O=[N+]([O-])O[C@@H]1CO[C@H]2[C@@H]1OC[C@@H]2O [ISMN, isosorbide mononitrate]	145 ± 5	60 ± 5	77 ± 3	77 ± 3	139 ± 4	significantly reduced		significantly decreased	11±2	19±3	34	3 to 4	average post-dose decrease in augmentation index ([3]; Group II (baseline AII inhibition), ISMN 60 mg single dose, control 38.5±1.1%): 16±1%; average post-dose decrease in aortic systolic pressure ([3]; Group II (baseline AII inhibition), ISMN 60 mg single dose, control 154±2): 34±3 mmHg; effect on sitting and standing brachial systolic blood pressure ([3]; Group II, P<0.0001): decreased; decrease in sitting brachial systolic blood pressure ([3]; Group II, at 12.00 h, from control value 176, P<0.001): 37 mm Hg; decrease in sitting diastolic pressure ([3]; Group II, at 12.00 h): 13 mm Hg; decrease in sitting brachial systolic blood pressure ([3]; Group II, at 16.00 h, from control value 173, P<0.001): 34 mm Hg; decrease in sitting diastolic pressure ([3]; Group II, at 16.00 h): 10 mm Hg; Heart rate, overall mean value ([3]; Group II, increased from mean value of 60, P<0.001): 64 bpm; peak decrease in augmentation index ([1]; FIGS. 1 and 2 (Groups I and II)): approximately 50 % of control; average post-dose decrease in augmentation index ([1]; Group I, ISMN 60 mg single dose, control 37.9±1.0%): 15±1%; average post-dose decrease in aortic systolic pressure ([1]; Group I, ISMN 60 mg single dose, control 160±2): 29±2 mmHg; Heart rate average post-dose increase ([1]; Group I, single dose, P<0.001): 3±1 b.p.m.; duration of depressor effect ([1]; extended-release preparation, observation to 16.00 h): sustained through the remainder of the observation period
